Experimental data reported in the NIST ThermoML archive (doi:10.1016/j.jct.2006.05.003).

Legend:
[1] = 101 kPa, Liquid
[2] = refractive index (Na D-line) (dimensionless); conditions: 101.33 kPa, Liquid, Standard Abbe refractometry
[3] = refractive index (Na D-line) (dimensionless); xn = mol fraction of the nth substance listed; conditions: 101 kPa, Liquid, Standard Abbe refractometry
[4] = xn = mol fraction of the nth substance listed; conditions: 101 kPa, Liquid

CC(C)(C)Cl [2-chloro-2-methylpropane]
Conditions	mass density, [1] [kg/m3]	refractive index, [2]
298.15 K	836.45	1.38224
313.15 K	818.31	1.37314

C1COCCO1 [1,4-dioxane] + CCCCCl
x1 = 1
Conditions	mass density, [4] [kg/m3]	refractive index, [3]
298.15 K	1027.87	1.41995
313.15 K	1010.69	1.41264

CCCCCl [1-chlorobutane]
Conditions	mass density, [1] [kg/m3]	refractive index, [2]
298.15 K	880.69	1.3995
313.15 K	863.82	1.39133

CCC(C)Cl (stereo not given) [2-chlorobutane]
Conditions	mass density, [1] [kg/m3]	refractive index, [2]
298.15 K	867.4	1.39404
313.15 K	850.13	1.38573

CC(C)CCl [1-chloro-2-methylpropane]
Conditions	mass density, [1] [kg/m3]	refractive index, [2]
298.15 K	871.13	1.39528
313.15 K	853.51	1.38686

C1COCCO1 [1,4-dioxane] + CC(C)(C)Cl
x1 = 1
Conditions	mass density, [4] [kg/m3]	refractive index, [3]
298.15 K	1027.87	1.41995
313.15 K	1010.69	1.41264

CCCCl [1-chloropropane] + C1COCCO1
Conditions	mass density, [4] [kg/m3]	refractive index, [3]
298.15 K, x2 = 0	884.26	1.3856
298.15 K, x2 = 0.1027	898.64	1.38919
298.15 K, x2 = 0.2077	913.41	1.39281
298.15 K, x2 = 0.3029	926.89	1.39609
298.15 K, x2 = 0.4034	941.19	1.39957
298.15 K, x2 = 0.506	955.87	1.40308
298.15 K, x2 = 0.6062	970.28	1.40651
298.15 K, x2 = 0.706	984.73	1.4099
298.15 K, x2 = 0.8081	999.6	1.41336
298.15 K, x2 = 0.9059	1013.96	1.41673
298.15 K, x2 = 0.9486	1020.26	1.41818
313.15 K, x2 = 0	865.14	1.37673
313.15 K, x2 = 0.1009	879.74	1.38047
313.15 K, x2 = 0.2026	894.27	1.38432
313.15 K, x2 = 0.3067	909.2	1.38812
313.15 K, x2 = 0.4061	923.53	1.39169
313.15 K, x2 = 0.5056	937.97	1.39523
313.15 K, x2 = 0.6044	952.38	1.39872
313.15 K, x2 = 0.7114	968.04	1.40252
313.15 K, x2 = 0.8026	981.42	1.40576
313.15 K, x2 = 0.9011	995.98	1.40922
313.15 K, x2 = 0.951	1003.38	1.41097

CCC(C)Cl (stereo not given) [2-chlorobutane] + C1COCCO1
Conditions	mass density, [4] [kg/m3]	refractive index, [3]
298.15 K, x2 = 0	867.4	1.39404
298.15 K, x2 = 0.0417	872.75	1.3949
298.15 K, x2 = 0.1061	881.2	1.3963
298.15 K, x2 = 0.2514	901.2	1.3996
298.15 K, x2 = 0.3493	915.42	1.40193
298.15 K, x2 = 0.4771	934.94	1.40512
298.15 K, x2 = 0.5563	947.61	1.40721
298.15 K, x2 = 0.6462	962.58	1.40961
298.15 K, x2 = 0.7343	977.89	1.41208
298.15 K, x2 = 0.8244	994.21	1.41466
298.15 K, x2 = 0.9112	1010.56	1.41725
298.15 K, x2 = 0.9891	1025.72	1.41962
313.15 K, x2 = 0	850.13	1.38573
313.15 K, x2 = 0.0475	856.2	1.38674
313.15 K, x2 = 0.1318	867.4	1.38865
313.15 K, x2 = 0.239	882.36	1.3912
313.15 K, x2 = 0.3413	897.3	1.39378
313.15 K, x2 = 0.4574	915.03	1.39683
313.15 K, x2 = 0.5546	930.53	1.39949
313.15 K, x2 = 0.6429	945.17	1.40195
313.15 K, x2 = 0.7326	960.65	1.40449
313.15 K, x2 = 0.8209	976.52	1.40709
313.15 K, x2 = 0.9121	993.58	1.40985
313.15 K, x2 = 0.9525	1001.37	1.41113

C1COCCO1 [1,4-dioxane]
Conditions	mass density, [1] [kg/m3]	refractive index, [2]
298.15 K	1027.87	1.41995
313.15 K	1010.69	1.41264

CCCCl [1-chloropropane]
Conditions	mass density, [1] [kg/m3]	refractive index, [2]
298.15 K	884.26	1.3856
313.15 K	865.14	1.37673

C1COCCO1 [1,4-dioxane] + CCC(C)Cl
x1 = 1
Conditions	mass density, [4] [kg/m3]	refractive index, [3]
298.15 K	1027.87	1.41995
313.15 K	1010.69	1.41264

CC(C)(C)Cl [2-chloro-2-methylpropane] + C1COCCO1
Conditions	mass density, [4] [kg/m3]	refractive index, [3]
298.15 K, x2 = 0	836.45	1.38224
298.15 K, x2 = 0.0458	844.01	1.38393
298.15 K, x2 = 0.1594	862.91	1.38814
298.15 K, x2 = 0.2576	879.78	1.39182
298.15 K, x2 = 0.3925	904.15	1.39689
298.15 K, x2 = 0.4632	917.47	1.39956
298.15 K, x2 = 0.5569	935.61	1.40312
298.15 K, x2 = 0.6611	956.29	1.40709
298.15 K, x2 = 0.7458	973.39	1.41033
298.15 K, x2 = 0.8395	992.69	1.4139
298.15 K, x2 = 0.9222	1010.32	1.41703
298.15 K, x2 = 0.9639	1019.57	1.41861
313.15 K, x2 = 0	818.31	1.37314
313.15 K, x2 = 0.0485	826.29	1.37502
313.15 K, x2 = 0.0903	833.3	1.37667
313.15 K, x2 = 0.2192	855.58	1.38175
313.15 K, x2 = 0.2827	866.86	1.38423
313.15 K, x2 = 0.3966	887.59	1.3888
313.15 K, x2 = 0.5029	907.54	1.39301
313.15 K, x2 = 0.6039	927.14	1.39702
313.15 K, x2 = 0.7025	946.96	1.40092
313.15 K, x2 = 0.8138	970.21	1.40529
313.15 K, x2 = 0.8959	987.89	1.4085
313.15 K, x2 = 0.9612	1002.17	1.41105

CC(C)CCl [1-chloro-2-methylpropane] + C1COCCO1
Conditions	mass density, [4] [kg/m3]	refractive index, [3]
298.15 K, x2 = 0	871.13	1.39528
298.15 K, x2 = 0.045	876.79	1.39616
298.15 K, x2 = 0.1196	886.36	1.39763
298.15 K, x2 = 0.2433	902.87	1.40025
298.15 K, x2 = 0.3412	916.58	1.40243
298.15 K, x2 = 0.4407	931.19	1.40471
298.15 K, x2 = 0.5447	947.22	1.40725
298.15 K, x2 = 0.6463	963.67	1.40983
298.15 K, x2 = 0.737	979.04	1.4123
298.15 K, x2 = 0.8305	995.63	1.41492
298.15 K, x2 = 0.9157	1011.45	1.41742
298.15 K, x2 = 0.9515	1018.31	1.41849
313.15 K, x2 = 0	853.51	1.38686
313.15 K, x2 = 0.0474	859.42	1.38783
313.15 K, x2 = 0.1492	872.58	1.39001
313.15 K, x2 = 0.2654	888.36	1.39259
313.15 K, x2 = 0.3687	903.12	1.39504
313.15 K, x2 = 0.4565	916.21	1.39721
313.15 K, x2 = 0.5541	931.39	1.39973
313.15 K, x2 = 0.6426	945.76	1.40211
313.15 K, x2 = 0.7423	962.69	1.40489
313.15 K, x2 = 0.8326	978.76	1.40752
313.15 K, x2 = 0.9112	993.38	1.40987
313.15 K, x2 = 0.9606	1002.9	1.41139

C1COCCO1 [1,4-dioxane] + CCCCl
x1 = 1
Conditions	mass density, [4] [kg/m3]	refractive index, [3]
298.15 K	1027.87	1.41995
313.15 K	1010.69	1.41264

C1COCCO1 [1,4-dioxane] + CC(C)CCl
x1 = 1
Conditions	mass density, [4] [kg/m3]	refractive index, [3]
298.15 K	1027.87	1.41995
313.15 K	1010.69	1.41264

CCCCCl [1-chlorobutane] + C1COCCO1
Conditions	mass density, [4] [kg/m3]	refractive index, [3]
298.15 K, x2 = 0	880.69	1.3995
298.15 K, x2 = 0.0418	885.54	1.40011
298.15 K, x2 = 0.1141	894.14	1.40119
298.15 K, x2 = 0.2426	910.06	1.40328
298.15 K, x2 = 0.3358	922.21	1.40491
298.15 K, x2 = 0.4518	938.11	1.40709
298.15 K, x2 = 0.5509	952.44	1.40908
298.15 K, x2 = 0.5914	958.52	1.40994
298.15 K, x2 = 0.738	981.64	1.41323
298.15 K, x2 = 0.8235	995.99	1.41529
298.15 K, x2 = 0.9104	1011.29	1.41752
298.15 K, x2 = 0.987	1025.41	1.4196
313.15 K, x2 = 0	863.82	1.39133
313.15 K, x2 = 0.0344	867.83	1.39188
313.15 K, x2 = 0.117	877.61	1.39321
313.15 K, x2 = 0.2279	891.26	1.39506
313.15 K, x2 = 0.3499	907.15	1.39732
313.15 K, x2 = 0.4442	920.15	1.39917
313.15 K, x2 = 0.55	935.51	1.40138
313.15 K, x2 = 0.645	950.02	1.40351
313.15 K, x2 = 0.7456	966.15	1.40591
313.15 K, x2 = 0.8238	979.22	1.40786
313.15 K, x2 = 0.9143	995.01	1.41024
313.15 K, x2 = 0.9636	1003.94	1.41159
